This note sets out measurements from patent publication US8802082B2, “Rhodamine derivatives for photodynamic diagnosis and treatment” (Université de Montreal, priority 1999, dated 2014).

The subject of data set [1] is CEM T cell acute lymphoblastic leukemia cell line. The data set can be described thus: Phototoxicity of TH9402, limiting dilution assay of clonogenic cells, CEM admixed with irradiated PBMC. The format is cell-based. Conditions: 10 μM TH9402 40 min, 90 min dye-free, 5 joules/cm^2, LDA 12-14 days. As to the method:
(§1) T cells represent the most important population of immune cells present in the peripheral blood. […] Phototoxicity was also evaluated in parallel against the chronic myelogenous leukemia cell line K562, that had been used in U.S. Pat. Nos. 5,556,992 and 5,773,460. The CEM T cell acute lymphoblastic leukemia cell line and K562 chronic myelogeneous leukemia cell line (Lozzio, B. B. and Lozzio, C. B. (1979) Cancer Res., 3(6): 363-370) were obtained from the American Type Culture Collection (ATCC, 12301 Parklawn Drive, Rockville, Md. 20852 USA) under the accession number CCL-119 and CCL-243. Cultures were maintained at 37° C. in a humidified incubator with an atmosphere of 95% air and 5% CO2. […] Before each experiment, cell viability was assessed by trypan blue exclusion. […]
(§2) To assess the photochemotherapeutic potential and the in vitro phototoxicity of 4,5-dibromorhodamine 123 hydrobromide (TH9402), the T cell line CEM and the leukemic line K562 admixed with normal irradiated PBMC were incubated with TH9402 and exposed to 5 joules/cm^2 of light (as described above). […] Growth at each serial dilution was assessed in an “all-or-nothing” (positive or negative) fashion under an inverted phase microscope. […]

In data set [2] the test system is K562 chronic myelogeneous leukemia cell line. The data set can be described thus: Phototoxicity of TH9402, limiting dilution assay of clonogenic cells, K562 admixed with irradiated PBMC. The format is cell-based. Conditions: 10 μM TH9402 40 min, 90 min dye-free, 5 joules/cm^2, LDA 12-14 days. As to the method: as §1, §2
Data set [3] has as its system PHA-activated PB mononuclear cells. The data set can be described thus: Phototoxicity against PHA-activated PB mononuclear cells (mixed lymphocyte reaction, 3H-thymidine; cell counts). In kind it is cell-based, human. As to the method: Suspensions of cells were then incubated with 10 μM TH9402 for 40 minutes at 37° C. Cells were treated at 1×10^6 cells/mL in X-vivo-15 medium without phenol red (BioWhittaker, Walkersville, Md., USA) supplemented with 2,5% FBS. At the end of the incubation period, cells were spun down and the cell pellet resuspended in the X-vivo culture medium in the absence of dye, supplemented with 10% FBS. Cells were then placed in T-flasks (Corning, Cambridge, Mass., USA) for 90 minutes at 37° C. […]
Normal PBMC were activated by incubation at 37° C. for 48 to 72 hours in X-vivo-15 medium (Biowhittaker, Walkersville. Md. U.S.A.) supplemented with 20% AB serum (Sigma), 1% pen-strep (Gibco), 2% glutamin (Gibco) and 20 μg/ml of phytohemagglutinin-A (PHA-P)(Sigma). […] Following incubation, cells were washed and treated with the TH9402 photodynamic treatment as described above, and proliferative activity measured as described below.
The latter cells were serially diluted in order to obtain effector (treated cells) to target ratios ranging from 2:1 to 1:4 (4×10^4 treated effector cells/well) and incubated at 37° C. for 5 days. […] Radioactivity in the cell harvest was counted using a liquid scintillation counter (Beckman, Chicago, Ill., USA).
The phototoxicity of TH9402 against PHA-activated PB mononuclear cells was assessed after photodynamic treatment using 5 and 7.5 joules/cm^2 of light energy (FIG. 2). […]

The test system of another data set is resting lymphocytes. The data set can be described thus: Cellular content/efflux of TH9402 by flow cytometry, resting lymphocytes. The format is cell-based, human. The method, then: (§3) TH9402 cellular content in resting and activated lymphocytes was evaluated by flow-cytometry, since the intensity of TH9402 (green) fluorescence correlates with the cellular content in TH9402. Briefly, 10^6 cells/ml, previously activated or not with PHA, were incubated in X-vivo-5 medium supplemented with 2.5% human AB serum and 10 μM TH9402 for 40 minutes. These cells were washed two times with X-vivo medium supplemented with 10% AB serum and cells analysed by flow cytometry 30, 50, 70, 90 and 110 min after the end of the TH9402 incorporation period. […] Since cellular concentration of TH9402 correlates with the extent of cell elimination, the high concentration of TH9402 maintained in activated lymphocytes explains their sensitivity to photodynamic therapy. In contrast, the rapid efflux of TH9402 from resting lymphocytes should explain preservation of their proliferative activity.
In order to identify the mechanism responsible for the differential retention of TH9402 between activated and resting lymphocytes, cyclosporin-A was used to block the multidrug transporter (P-gp 170). These cells were incubated with 10 μM TH9402 for 8 minutes, and washed with medium containing 1 μg/ml cyclosporin-A or medium alone. TH9402 retention was subsequently evaluated by flow-cytometry (green fluorescence) (FIG. 5). […] The functional impairment of such a pump in activated lymphocytes could explain the high levels of phototoxicity observed in these cells.
(In general: A flow cytometer gives signals particle by particle.)

The test system of a further data set is activated lymphocytes. The data set can be described thus: Cellular content/efflux of TH9402 by flow cytometry, activated lymphocytes. The format is cell-based, human. Conditions: 10 μM TH9402, wash with 1 μg/ml cyclosporin-A, 110 minutes. The method, then:
as §3
In order to identify the mechanism responsible for the differential retention of TH9402 between activated and resting lymphocytes, cyclosporin-A was used to block the multidrug transporter (P-gp 170). These cells were incubated with 10 μM TH9402 for 8 minutes, and washed with medium containing 1 μg/ml cyclosporin-A or medium alone. TH9402 retention was subsequently evaluated by flow-cytometry (green fluorescence) (FIG. 5). […]

As for `Br.COC(=O)c1ccccc1-c1c2ccc(=N)c(Br)c-2oc2c(Br)c(N)ccc12` [TH9402, 4,5-dibromorhodamine 123 (2-(4,5-dibromo-6-amino-3-imino-3H-xanthen-9-yl)-benzoic acid methyl ester) hydrobromide], in data set [1], the “CEM cells escaping elimination by phototherapy in comparison to the media only sample” value is listed as “less than 0.1%”. For the same compound, the “K562 cells escaping elimination by phototherapy in comparison to the media only sample” value in data set [2] is listed as “less than 0.1%”. For the same compound, the “reactivity towards MHC incompatible cells (proliferation in mixed lymphocyte culture)” value in data set [3] (PHA-activated cells treated with TH9402, 5 and 7.5 J/cm^2) was “abrogated”. For the same compound, the “decrease of cell counts of the treated cells in comparison to the medium control” value in data set [3] (three days after the photodynamic treatment) was > 90%. Further, the “cells demonstrating low TH9402 fluorescence” value in the data set with resting lymphocytes (10 μM TH9402 40 min, 110 minutes after the end of the incorporation period) is recorded as “approximately 50%”. The “TH9402 retention with cyclosporin A versus medium alone, resting lymphocytes” value with resting lymphocytes (10 μM TH9402, wash with 1 μg/ml cyclosporin-A, 110 minutes) is “higher retention”. In addition, in the data set on resting lymphocytes (all time-points evaluated (30-110 min)), the “intensity of TH9402 fluorescence, resting versus activated lymphocytes” value is recorded as “less for resting lymphocytes than for activated lymphocytes”. The “fluorescence intensity in activated cells treated or not treated with cyclosporin A” value in the data set with activated lymphocytes is recorded as “identical”.
